In one assay the test system is A549. Put plainly: Antiproliferative activity against human A549 cells incubated for 24 hrs by MTT assay. It counts as functional, cell-based. To be noted: A549, 24 h.
The subject of the next assay is Ca9-22. Briefly: Antiproliferative activity against human Ca9-22 cells incubated for 24 hrs by MTT assay. The format is functional, cell-based. The settings on record: Ca9-22, 24 h. (Tetrazolium assays rely on reduction of a dye to a coloured formazan, in cell work by metabolically active cells.)
Another assay has as its system CHL-1. Briefly: Antiproliferative activity against human CHL-1 cells incubated for 24 hrs by MTT assay. The settings on record: CHL-1, 24 h. It counts as functional, cell-based.
In another assay the test system is HCT-116. Put plainly: Antiproliferative activity against human HCT-116 cells incubated for 24 hrs by MTT assay. The settings on record: HCT-116, 24 h. It counts as functional, cell-based.
Another assay deals with HeLa. Put plainly: Antiproliferative activity against human HeLa cells incubated for 24 hrs by MTT assay. The format is functional, cell-based.
The test system of assay [1] is HT-1080. Put plainly: Antiproliferative activity against human HT-1080 cells incubated for 24 hrs by MTT assay. The format is functional, cell-based. To be noted: HT-1080, 24 h.
Another assay has as its system PC-3. Briefly: Antiproliferative activity against human PC-3 cells incubated for 24 hrs by MTT assay. The format is functional, cell-based. The settings on record: PC-3, 24 h.
The test system of a further assay is SK-MEL-28. Briefly: Antiproliferative activity against human SK-MEL-28 cells incubated for 24 hrs by MTT assay. It counts as functional, cell-based. To be noted: SK-MEL-28, 24 h.
For assay [2], the system named is HT-1080. Put plainly: Induction of cell morphological changes in human HT-1080 cells at 20 uM incubated for 24 hrs by phase contrast microscopic analysis. It counts as functional, cell-based.
Assay [3] deals with T1, Heat shock protein HSP90 (Homo sapiens) (UniProt P07900+P08238). Briefly: Inhibition of HSP90 in human HT-1080 cells assessed as upregulation of HSP70 protein expression measured after 24 hrs by Western blot analysis. It counts as cell-based. To be noted: dose 3-30 µM.
Assay [4] addresses T1, Heat shock protein HSP90 (Homo sapiens). Briefly: Inhibition of HSP90 in human HT-1080 cells assessed as downregulation of Akt protein expression measured after 24 hrs by Western blot analysis. To be noted: dose 3-30 µM. The format is cell-based. (A western blot detects proteins with antibodies after separation by electrophoresis.)
Assay [5] shares this target. Put plainly: Inhibition of HSP90 in human HT-1080 cells assessed as downregulation of CDK4 protein expression measured after 24 hrs by Western blot analysis. The settings on record: dose 3-30 µM. It counts as cell-based.
The target is the same in assay [6]. Briefly: Inhibition of HSP90 in human HT-1080 cells assessed as decrease in CDK4 protein level by measuring half-life of CDK4 protein at 20 uM measured upto 24 hrs in the presence of cycloheximide by Western blotting analysis. It counts as cell-based.
In assay [7] the test system is HT-1080. Put plainly: Induction of cell morphological changes in human HT-1080 cells at 10 uM incubated for 24 hrs by phase contrast microscopic analysis. The format is functional, cell-based.
In assay [8] the test system is HT-1080. Put plainly: Upregulation of HSP70 protein expression in human HT-1080 cells by Western blotting analysis. It counts as functional, cell-based.

Consider 13 compounds from ChEMBL document CHEMBL5143578, “Elucidation of structure-activity relationship of humulanolides and identification of humulanolide analog as a novel HSP90 inhibitor” (Bioorg Med Chem Lett, 2022).

For orientation: IC50 means the midpoint of a concentration-inhibition curve. Low values mean inhibition by little substance, high ones a need for much substance.

The source made the active and inactive calls. The calls are words filed in the database; no cut-off is given here.

As to `CC1(C)[C@H]2[C@H]3[C@@H]1OC(=O)C31CC[C@@H]3O[C@]3(C)C(=O)[C@H]21` (some centres undefined), the half-inhibitory concentration (IC50) in the assay on A549, with Ca9-22, in the assay with CHL-1, in the assay with HCT-116, in the assay on HeLa and with HT-1080 [1] was greater than 10 µM throughout. For the same compound, the IC50 in the assay on PC-3 and in the assay with SK-MEL-28 was greater than 10 µM in each case.

For the compound `C/C1=C/CC[C@@H]2C(=O)O[C@H]3[C@@H]2C(=CC3(C)C)C1=O`, the IC50 with A549, with Ca9-22, in the assay with CHL-1, in the assay on HCT-116, in the assay on HeLa and in the assay on HT-1080 [1] was greater than 10 µM each time. In addition, the IC50 in the assay with PC-3 and in the assay on SK-MEL-28 was greater than 10 µM each time.

Take `CC1(C)/C=C/[C@H](O)[C@@]2(C)O[C@H]2CCC2=C[C@@H]1OC2=O`: the IC50 in the assay on A549, in the assay on Ca9-22, with CHL-1, in the assay with HCT-116, in the assay on HeLa and in the assay on HT-1080 [1] was greater than 10 µM in each case. Moreover, the IC50 in the assay on PC-3 and with SK-MEL-28 was greater than 10 µM in each case.

Take `CC1(C)/C=C/C(=O)[C@@]2(C)O[C@H]2CCC2=C[C@@H]1OC2=O`: the IC50 with A549 was 3.02 µM; in the assay on Ca9-22 it was 2.94 µM; with CHL-1, 3.63 µM; with HCT-116 it was 1.22 µM; in the assay with HeLa, 4.78 µM; with HT-1080 [1] it was 6.54 µM. Further, the IC50 in the assay with PC-3 amounted to 1.81 µM; with SK-MEL-28, 3.43 µM. In the assay on HT-1080 [2], the outcome was Active. Besides, the inhibition entry in [3], in [4] and in [5] was “Active” each time. Besides, the T1/2 in [6] was 8 h.

On to `CC1(C)/C=C/C(=O)[C@@]2(C)O[C@@H]2CCC2=C[C@@H]1OC2=O`, for which the IC50 in the assay with A549, in the assay on Ca9-22, in the assay with CHL-1, in the assay on HCT-116, in the assay on HeLa and with HT-1080 [1] was greater than 10 µM throughout. The IC50 with PC-3 and in the assay on SK-MEL-28 was greater than 10 µM in each case.

For the compound `COC1=C2C[C@@H](C)C[C@H](OC)[C@H](O)[C@@H](C)/C=C(\C)[C@H](OC(N)=O)[C@@H](OC)/C=C\C=C(/C)C(=O)NC(=CC1=O)C2=O`, the result in the assay on HT-1080 [7] was Active.

In the case of `C/C1=C\CCC2=C[C@H](OC2=O)C(C)(C)/C=C/[C@@H]1O`, the IC50 in the assay with A549, in the assay with Ca9-22, in the assay on CHL-1, in the assay on HCT-116, in the assay on HeLa and in the assay with HT-1080 [1] was greater than 10 µM in each case. The IC50 with PC-3 and in the assay with SK-MEL-28 was greater than 10 µM throughout.

Regarding `C/C1=C\CCC2=C[C@H](OC2=O)C(C)(C)/C=C/C1=O`, the 50% inhibitory concentration (IC50) in the assay on A549 stood at 5.51 µM; with Ca9-22, 4.79 µM; with CHL-1, 4.71 µM; in the assay on HCT-116 it was 6.59 µM; in the assay with HeLa it was 8.64 µM; with HT-1080 [1], 5.31 µM. In addition, the values for the IC50 with PC-3 and in the assay on SK-MEL-28 were 3.13 µM and 5.26 µM, respectively. Besides, the result with HT-1080 [8] was Active.

As for `CC1(C)/C=C/[C@H](O)[C@@]2(C)O[C@@H]2CCC2=C[C@@H]1OC2=O`, the half-maximal inhibitory concentration (IC50) in the assay on A549, in the assay with Ca9-22, in the assay on CHL-1, with HCT-116, in the assay on HeLa and with HT-1080 [1] was greater than 10 µM in each case. For the same compound, the IC50 in the assay on PC-3 and in the assay on SK-MEL-28 was greater than 10 µM each time.

As to `C/C1=C/CCC23C(=O)O[C@H]4[C@@H]2[C@@H](C1=O)[C@@H]3C4(C)C`, the IC50 in the assay on A549, in the assay on Ca9-22, in the assay on CHL-1, in the assay with HCT-116, in the assay with HeLa and in the assay with HT-1080 [1] was greater than 10 µM in each case. Besides, the IC50 in the assay on PC-3 and with SK-MEL-28 was greater than 10 µM throughout.

As to `C/C1=C/CCC2=C[C@H](OC2=O)C(C)(C)/C=C/C1=O`, the IC50 with A549 was 6.62 µM; with Ca9-22, 7.52 µM; with CHL-1 it was greater than 10 µM; with HCT-116, 9.82 µM; in the assay on HeLa it was 8.19 µM; with HT-1080 [1], 8.17 µM. Also, the IC50 in the assay on PC-3 was 2.65 µM; with SK-MEL-28, greater than 10 µM. Also, in the assay on HT-1080 [8], the result was Active.

Take `CC1=CCCC23C(=O)O[C@H]4[C@@H]2[C@@H]([C@H]3C1=O)C4(C)C` (some centres undefined): the IC50 in the assay with A549, in the assay with Ca9-22, in the assay with CHL-1, with HCT-116, with HeLa and in the assay with HT-1080 [1] was greater than 10 µM each time. The IC50 with PC-3 and in the assay with SK-MEL-28 was greater than 10 µM each time.

As for `C/C1=C/CCC2=C[C@H](OC2=O)C(C)(C)/C=C\C1=O`, the IC50 in the assay on A549 was greater than 10 µM; with Ca9-22, 9.89 µM; in the assay on CHL-1 it was greater than 10 µM; in the assay with HCT-116, greater than 10 µM; in the assay with HeLa it was greater than 10 µM; with HT-1080 [1], greater than 10 µM. Also, the IC50 with PC-3 and in the assay on SK-MEL-28 was greater than 10 µM in each case.
